{
  "source": "patent US12409148B2",
  "about": "“Plant tissue-derived nanoparticles and food powders” (PSIGRYPH INC., priority 2018, dated 2025)",
  "key": {"[1]": {"test_system": "Normal Cell Line CRL 1790", "method": "(§1) Cell culture: Three cell lines derived from colon, CRL 1790, a normal cell line, HT 29, a colorectal cancer cell line and CRL 2158 a multidrug resistant colorectal cancer cell line (ATCC) were used to evaluate the cytotoxicity of nanocomplexes. Cells were cultured in media specifically recommended for each cell line. For HT 29, the medium used was DMEM (Dulbecco's modified Eagle's medium, Sigma), for CRL 2158, the medium used was RPMI, and for CRL 1790, the medium used was EMEM (Eagle's minimum essential medium; Cedarlane Labs, Burlington, ON, Canada). All the media were supplemented with FBS, Penicillin/streptomycin, and L-glutamine. At confluency (˜80%), cells were washed with 1×PBS twice. Cells were incubated with trypsin-EDTA for 5 minutes and then diluted in respective media supplemented with 10% FBS before staining with trypan blue (50 ul of cells and 450 ul of trypan blue) and counting viable cells to evaluate cytotoxicity. The cytotoxicity was determined by trypan blue exclusion by living cells and blue staining of dead cells. The number of dead cells in a unit area was counted and expressed as a percentage of total cells in the area. […]"}, "[2]": {"test_system": "Colorectal MDR cell line CRL 2158", "method": "as §1"}, "[3]": {"assay": "DPPH radical scavenging capacity of food powder", "format": "biochemical", "details": "positive control at same concentrations as polyphenols"}, "[4]": {"test_system": "CRL 1790 cells", "assay": "Calcein uptake by confocal microscopy", "format": "cell-based, human", "method": "(§2) Calcein uptake into HT 29, CRL 1790 cells: Uptake of calcein-loaded nanoparticles into mammalian cells. Calcein by itself is impermeable through membrane, and may be taken up at a low level by endocytosis. Ethanol-bleached cherry was homogenized in water, also containing 1 mg/g fresh weight equivalent of calcein, and the supernatant dialyzed against water. Calcein complexed to nanofilaments is retained within the dialysis bag, and used for uptake measurements by confocal microscopy.\n(§3) Studies were also performed to investigate use of nanofibres as delivery vehicles for a cargo of interest, where the cargo was non-covalently complexed with the nanofibres. In this study, nanofibres were used for cellular delivery of calcein. […]\n(§4) Uptake of complexed molecules by nanofibres: Nanofibres are extremely long (micrometers in length, ˜5 nm in diameter; see FIG. 37, for example), and their ability to cross the plasma membrane was investigated. […] HT-29 and CRL-1790 cells were incubated in the presence of calcein alone, and calcein-complexed nanofibres (of equal fluorescence intensity). Uptake of calcein and calcein complexed with nanofibres were monitored by confocal microscopy. […] Similar experiments were also conducted with nanoparticles, however, because of quenching of fluorescence by polyphenols, successful acquisition of images was not achieved."}, "[5]": {"test_system": "HT 29 cells", "assay": "Calcein uptake by confocal microscopy", "format": "cell-based, human", "method": "as §2, §3, §4"}},
  "note": "“Also recorded” adds a separate entry of the source.",
  "data": [
    {"smiles": "CC(=O)O[C@H]1C(=O)[C@@]2(C)[C@H]([C@H](OC(=O)c3ccccc3)[C@]3(O)C[C@H](OC(=O)[C@H](O)[C@@H](NC(=O)c4ccccc4)c4ccccc4)C(C)=C1C3(C)C)[C@]1(OC(C)=O)CO[C@@H]1C[C@@H]2O", "note": "[Paclitaxel, paclitaxel]", "values": [
      {"measurement": "cytotoxicity (in words)", "setting": "[1]", "value": "low level of cytotoxicity"},
      {"measurement": "cytotoxicity (in words)", "setting": "[2]", "value": "low level of cytotoxicity"}
    ]},
    {"smiles": "Cc1c(C)c2c(c(C)c1O)CCC(C)(C(=O)O)O2", "note": "(centres unmarked) [Trolox]", "values": [
      {"measurement": "TEAC value", "setting": "[3]", "value": 1}
    ]},
    {"smiles": "O=C(O)CN(CC(=O)O)Cc1cc2c(cc1O)Oc1cc(O)c(CN(CC(=O)O)CC(=O)O)cc1C21OC(=O)c2ccccc21", "note": "[calcein]", "values": [
      {"measurement": "uptake of calcein into cells", "setting": "[4]", "value": "comparatively very low"},
      {"measurement": "uptake of calcein into cells", "setting": "[5]", "value": "comparatively very low; also recorded: Far reduced uptake"}
    ]}
  ]
}
